Data on 15 compounds can be found in patent US20100298305A1, “TIZANIDINE FOR THE TREATMENT OF POST-TRAUMATIC STRESS DISORDER AND NIGHTMARES” (The United States Government, as represented by the …, priority 2008, published 2010).

Read-outs that look alike come from different tables or passages of the source.

The subject of series [1] is PTSD. The series is described as follows: Example 1 case summaries 1-6: tizanidine as adjunctive treatment for PTSD, anxiety, depression, psychosis or impaired cognition. In kind it is in vivo, human. Conditions: for signs or symptoms: Case 3, more than two years, sertraline 250 mg daily, divalproex sodium 2500 mg daily, quetiapine 100 mg twice daily and 400 mg at bedtime, amitriptyline 25 mg at bedtime, tramadol 50 mg as needed. As for the experimental part:
Treatment was begun with sertraline 100 mg per day for anxiety and nortriptyline 25 mg at bedtime for headaches. […] Treatment with tizanidine was started and the dose was increased to 8 mg at bedtime.
Tizanidine was started and titrated up to 4 mg at bedtime along with aripiprazole (15 mg at bedtime) and clonazepam (0.5 mg daily).
These medications included sertraline (250 mg daily), divalproex sodium (2500 mg daily), quetiapine (100 mg twice daily and 400 mg at bedtime), amitriptyline (25 mg at bedtime), and tramadol (50 mg as needed for severe headache). […] A trial of tizanidine was started and the dose was titrated up to 8 mg at bedtime.
Pharmacologic Treatment and Response: While on the psychiatry unit, they were treated with sertraline for PTSD and nortriptyline for headaches and depression. […] They were started on tizanidine 4 mg at bedtime.
After approximately one year, subject agreed to a trial of tizanidine as an addition to sertraline. […] They agreed to increase the dose to 4 mg at bedtime and follow-up in four weeks. […] An atypical antipsychotic medication, aripiprazole, was added to their medications.
Treatment with tizanidine 4 mg at bedtime was added to the existing sertraline.

The test system of series [2] is PTSD. In words: Example 2 case summaries 7-9: switching from once to twice-daily dosing of tizanidine. The note with it: for improvement on medications: approximately one year, doses close to the maximum recommended dose. The procedure:
They were continued on aripiprazole, quetiapine, sertraline, and trazodone. Treatment with tizanidine was started for the nightmares and poor sleep.
They were switched from tizanidine 8 mg at bedtime to tizanidine 6 mg in the morning and 8 mg at bedtime. […] They continued on the sertraline, divalproex, and trazodone for initial insomnia. The tizanidine was switched to 4 mg in the morning and 4 mg at bedtime.
Subject was started on tizanidine up to 8 mg at bedtime for nightmares. They also were issued a device to assist with memory problems. A rating scale for common cognitive problems was administered by speech pathology prior to issuing them a personal digital assistant as a memory assist device.
They continued to take sertraline and tizanidine. At a psychology evaluation session, subject completed two self-report instruments of PTSD and depressive symptoms to establish a baseline indication of symptom severity. […] Subject was then switched from tizanidine 8 mg at bedtime to 4 mg twice daily.
After approximately one year of being followed in the psychiatry clinic, they became more willing to try medication and agreed to a trial of tizanidine.

For series [3], the system named is PTSD. The note with it: Case 10; for ADHD symptoms: earlier medication trials during military service. An excerpt:
Given the prior history of ADHD, methylphenidate was cautiously added to the venlafaxine. […] They were referred to a specialty inpatient program for PTSD. During the inpatient program, the antidepressant was switched from venlafaxine to duloxetine.

Setting [4] is: Case 8, sertraline 150 mg per day, two months later.
The mark [5] stands for this setting: Case 1, sertraline 100 mg per day with nortriptyline 25 mg at bedtime, after four weeks.
Where [6] appears, read: Case 4, sertraline with nortriptyline, five days after hospital discharge.

For `CN(C)CCC=C1c2ccccc2CCc2ccccc21` [amitriptyline], in the series with PTSD [1], the signs or symptoms result is on record as “None of these medications significantly reduced their signs or symptoms”.
For `O=C1CCc2ccc(OCCCCN3CCN(c4cccc(Cl)c4Cl)CC3)cc2N1` [aripiprazole], in the series with PTSD [2] (Case 7), the improvement on medications entry was “only modest improvement”.
In the case of `CC(NC(C)(C)C)C(=O)c1cccc(Cl)c1` (stereo not shown) [bupropion], the ADHD symptoms result in the series on PTSD [3] is reported as “neither of which were effective”.
For the compound `CCCC(CCC)C(=O)O` [divalproex sodium], the improvement on medications entry in the series on PTSD [2] (Case 7) was “only modest improvement”. The signs or symptoms result in the series on PTSD [1] is listed as “None of these medications significantly reduced their signs or symptoms”.
As to `CNCC[C@H](Oc1cccc2ccccc12)c1cccs1` [duloxetine], the “helpfulness as judged by subject” value in the series with PTSD [3] (antidepressant switched from venlafaxine to duloxetine) was “did not believe the duloxetine was helpful”.
For the compound `OCCOCCN1CCN(C(c2ccccc2)c2ccc(Cl)cc2)CC1` (stereo not shown) [hydroxyzine], in the series with PTSD [2] (Case 7), the improvement on medications result is given as “only modest improvement”.
`COC(=O)C(c1ccccc1)C1CCCCN1` (stereo not shown) [methylphenidate]: in the series on PTSD [3], the ADHD symptoms result is listed as “neither of which were effective”. Moreover, the “mood and anxiety symptoms” value in the series on PTSD [3] (methylphenidate added to venlafaxine) is “marked improvement”; in the series with PTSD [3] (methylphenidate as monotherapy, several weeks), “improved mood and anxiety symptoms”. Also, in the series with PTSD [3] (short-acting methylphenidate 10 mg three times daily), the “mood, anxiety, and cognitive symptoms” value was “additional improvements”.
Regarding `COc1cc2nc(N3CCN(C(=O)c4ccco4)CC3)nc(N)c2cc1OC` [prazosin], the nightmares result in the series on PTSD [1] (Case 2, prazosin 5 mg at bedtime added, sertraline increased to 200 mg daily) was “reduced but did not eliminate nightmares”.
Consider `OCCOCCN1CCN(C2=Nc3ccccc3Sc3ccccc32)CC1` [quetiapine], for which, in the series with PTSD [2] (Case 7), the improvement on medications entry is “only modest improvement”. The hallucinations entry in the series on PTSD [1] (Case 2, trial of quetiapine) was “did not affect the hallucinations”. The signs or symptoms result with PTSD [1] is listed as “None of these medications significantly reduced their signs or symptoms”.
Take `CN[C@H]1CC[C@@H](c2ccc(Cl)c(Cl)c2)c2ccccc21` [sertraline]: the improvement on medications entry in the series with PTSD [2] (Case 7) was “only modest improvement”. Further, in the series with PTSD [2] (setting [4]), the anxiety symptoms entry is reported as “responded well” and the irritability entry is recorded as “not improved”. Moreover, in the series on PTSD [1] (setting [5]), the “anxiety, depression, and psychosis” value is on record as “only a modest decrease”; the “intensity and frequency of nightmares” value is given as “unchanged”. The “anxiety, nightmares, and psychosis” value in the series with PTSD [1] (Case 2, sertraline 200 mg daily, bupropion 150 mg twice daily and prazosin 5 mg at bedtime, one year) was “only a mild impact”. In addition, the signs or symptoms result in the series on PTSD [1] is given as “None of these medications significantly reduced their signs or symptoms”. In the series with PTSD [1] (setting [6]), the hallucinations and paranoia entry was “improvements regarding hallucinations and paranoia”; the “sleep problems and nightmares” value is “persistent sleep problems and nightmares”. Also, in the series on PTSD [1] (Case 5, sertraline increased to 200 mg per day with sodium divalproex and aripiprazole added, twelve months), the “response to medication changes” value is given as “only a modest response”. Besides, the treatment results with PTSD [1] (Case 5, sertraline since release from military duty) was “poor results”. In addition, in the series with PTSD [1] (Case 6, sertraline up to 200 mg per day, approximately one year), the “PTSD signs and symptoms” value is “only modest improvement”.
In the case of `CC1(C)O[C@@H]2[C@@H](CO[C@@]3(COS(N)(=O)=O)OC(C)(C)O[C@@H]23)O1` [topiramate], the “frequency of combined visual-olfactory hallucinations” value in the series with PTSD [2] (Case 7, recent addition of topiramate) is recorded as “did not reduce the frequency”.
As to `COc1cccc(C2(O)CCCCC2CN(C)C)c1` (stereo not shown) [tramadol], in the series with PTSD [1], the signs or symptoms entry was “None of these medications significantly reduced their signs or symptoms”.
For the compound `O=c1n(CCCN2CCN(c3cccc(Cl)c3)CC2)nc2ccccn12` [trazodone], the improvement on medications entry in the series on PTSD [2] (Case 7) was “only modest improvement”.
For the compound `COc1ccc(C(CN(C)C)C2(O)CCCCC2)cc1` (stereo not shown) [venlafaxine], the adverse effect entry in the series with PTSD [2] (Case 8, Venlafaxine up to 150 mg daily) was “developed akathisia”. Moreover, in the series on PTSD [1] (Case 2, sertraline switched to venlafaxine up to 300 mg daily, six months), the condition entry is “did not significantly change their condition”. The “mood and anxiety symptoms” value with PTSD [3] (venlafaxine sustained-release 225 mg per day with zolpidem 10 mg at bedtime) is “only modestly improved”.
For `Cc1ccc(-c2nc3ccc(C)cn3c2CC(=O)N(C)C)cc1` [zolpidem], the nightmares result in the series with PTSD [2] (Case 8, initial treatment with zolpidem) was “did not improve the nightmares”.
